# Literature values as cited in patent publication US20150272930A1, “Fixed Dosage Formulations of Angiotensin Converting Enzyme (ACE) inhibitor and the Diuretic Chlorthalidone” (AILEX Pharmaceuticals PVT. LTD., priority 2014, published 2015).
# Details: compared with HCTZ
smiles,measurement,setting,value
"NS(=O)(=O)c1cc(C2(O)NC(=O)c3ccccc32)ccc1Cl (centres unmarked) [Chlorthalidone, 2-chloro-5-(1-hydroxy-3-oxo-1,2-dihydroisoindol-1-yl)-benzenesulfonamide]",duration of action,,longer duration of action
same,antihypertensive effectiveness,over 24 hours,more effective antihypertensive agent
